Measurements from paper PMC3832545 (PLoS ONE, 2013).

Key:
female and male rats = settings: supra-pharmacological doses, ref [47]; cited from earlier work
Source text: However, the in vitro ...

[1] = Mouse C-peptide in plasma after sc injection in DIO-mice; assay type: in vivo; settings: 600 nmol/kg sc, P<0.05
Method: Before experiments were initiated, the systemic levels of mouse insulin were measured using a Rat/Mouse Insulin ELISA kit (Millipore Corp., Bilerica, MA, USA), according to manufacturer’s instructions. […] Mouse C-peptide was assayed with Rat/Mouse C-peptide 2 ELISA kit (Millipore), according to manufacturer’s instructions. […] Insulin X10 was measured in mouse plasma using a wash-LOCI assay, as also described recently. See Materials S1 for detailed information regarding these assays.
At termination of experiments whole blood was collected in EDTA-coated tubes (BD Biosciences) by cardiac puncture. Blood plasma was isolated by centrifugation for 10 min at 1500 rpm and thereafter stored at -80 °C until analysis. Mouse C-peptide was assayed with Rat/Mouse C-peptide 2 ELISA kit (Millipore) according to manufacturer’s instructions. […] In initial tests the sensitivity and specificity of the assay in mouse plasma was confirmed. […] After incubation for another 30 min at 21-22 °C chemiluminescence was measured in an Envision plate reader (Perkin Elmer). […] Finally 10 µl of streptavidin coated donor beads were added, incubated as above and immediately after this chemiluminescence was measured using an Envision plate reader. […]

[2] = cited from earlier work
Source text: Further studies are needed to clarify if this effect is also observed during other experimental conditions. However, our in vivo data for ...

P-Akt (Ser473) = experiment: Signalling in MC38 cells, Western blot P-Akt; assay type: cell-based, mouse; settings: covers both Akt (Ser473) and p70S6K (Thr389)
Method: MC38 cells (mouse cell line described by Corbett et al. (1975) and generously provided by Dr. Pnina Brodt, McGill University, Montreal, QC) and MCF-7 cells (ATCC, Manassas, VA, USA), were cultivated in DMEM medium containing 4.5 g/l glucose (Wisent Inc., Montreal, QC, Canada) supplemented with 10% (v/v) fetal bovine serum (FBS, Invitrogen) and 20 μg/ml gentamicin (Sandoz Canada, Boucherville, QC, Canada) (i.e., growth medium). Cells used in animal experiments were trypsinized, washed once in PBS and resuspended in PBS (4°C) at a concentration of 5.0 × 10^6 cells/ml and kept on ice until sc injection in the mice. For signalling experiments MC38 cells were cultivated in growth medium for two days until 80-90% confluent, cell cultures were then rinsed once in PBS (room temperature), and starvation medium (similar to growth medium, except it contained only 0.25% (v/v) FBS and no phenol red) was added for 3 h. […] Each signalling experiment comprised two replicate samples per treatment and three independent experiments were performed. […] Data describing IR and IGF-1R expression in various mouse tissues were analysed in a one-way ANOVA followed by pairwise comparisons between tissues using multiple t-test with Bonferroni correction.

IGF-1 receptor (IGF-1R) = settings: ref [10], [11]; cited from earlier work
[3] = system: female Sprague Dawley rats; settings: rat, in vivo; cited from earlier work
insulin receptor (IR) = settings: cited from earlier work

Row | Substance | Incidence of mammary carcinoma and pheochromocytoma (female and male rats) | Levels of C-peptide in plasma 0.5 h after treatment compared to >5 h [1] | Mitogenic potency relative to HI, some cell lines ([2]; ref [10], [13], [46]) [fold] | Mitogenic potential relative to HI in vitro ([2]; ref [14]) | Increase of phosphorylation of Akt (Ser473) and p70S6K (Thr389) compared to HI (P-Akt (Ser473)) | Increase of binding affinity to the IGF-1 receptor (vs human insulin) (IGF-1 receptor (IGF-1R)) | Incidence of spontaneous mammary tumors [3] | Increase of binding affinity to the insulin receptor (vs human insulin) (insulin receptor (IR); ref [10], [11]) [fold] | Off-rate from the IR compared to native human insulin (insulin receptor (IR); ref [12])
1 | IGF-1: recombinant human IGF-1 (Increlex, IPSEN Pharma GmbH) | increased the incidence | – | – | – | – | – | – | – | –
2 | human insulin [HI] | – | significantly decreased | – | – | – | – | – | – | –
3 | insulin analog B10Asp [X10] | – | significantly decreased | 10 | 3–15 fold | 35–90% | 3- to 5 fold | increased the incidence | 2 | decreased off-rate
